The record followed here is paper PMC4666783 (Organic & biomolecular chemistry, 2015).

The structures appear in SMILES notation. Like-named read-outs stand apart in the source and are kept apart here.

The target in one experiment is HIV-1 protease (Human immunodeficiency virus type 1 group M subtype B, UniProt P04585). Put plainly: HIV-1 protease enzyme inhibition, assay developed by Toth and Marshall. In kind it is biochemical. The following applies: for enzyme inhibitory activity: result in words, comparator as stated.
The subject of a further experiment is HIV-1. Put plainly: Antiviral activity, MTT assay. The following applies: for IC50: Human immunodeficiency virus 1, read-out: IC50 (antiviral); for antiviral potency: result in words, comparator as stated. In kind it is cell-based. A general note: Formazan colour is commonly taken as a measure of viable cells.
Experiment [1] concerns HIVDRV^RP20 drug resistant strains of HIV. Put plainly: microbe, parasite or virus in culture. The class given is cell-based, HIV-1.

As usually defined, the Ki is the dissociation constant of the complex between target and ligand, obtained from inhibition or displacement. Low readings indicate a stronger hold on the target, high ones a looser hold on the target. Usually IC50 stands for the concentration that inhibits the measured activity by half. At HIV-1 protease, `COc1ccc(S(=O)(=O)N(CC(C)C)C[C@@H](O)[C@H](Cc2ccccc2)NC(=O)O[C@H]2CCO[C@H]3OC[C@H](OC)[C@H]32)cc1` [Inhibitor 30b, (3R,3aR,4S,7aS)-3-Methoxyhexahydro-2H-furo[2,3-b]pyran-4-yl (2S,3R)-3-hydroxy-4-(N-isobutyl-4-methoxyphenylsulfonamido)-1-phenylbutan-2-ylcarbamate] had a Ki of 0.0045 nM. For the same compound, at HIV-1 protease (30b vs 30a), the “fold better enzymatic Ki compared to compound 30a” value was “over 300 fold”. For the same compound, in the experiment with HIV-1, the IC50 was found to be 0.2 nM and the “antiviral potency” value is “subnanomolar antiviral activity”.

For `COc1ccc(S(=O)(=O)N(CC(C)C)C[C@@H](O)[C@H](Cc2ccccc2)NC(=O)O[C@H]2CCO[C@H]3OC[C@@H](OC)[C@H]32)cc1` [Inhibitor 30a, (3S,3aR,4S,7aS)-3-Methoxyhexahydro-2H-furo[2,3-b]pyran-4-yl (2S,3R)-3-hydroxy-4-(N-isobutyl-4-methoxyphenylsulfonamido)-1-phenylbutan-2-yl carbamate], the affinity at HIV-1 protease (at least 5 data points, standard error less than 7%), expressed as Ki, was 1.38 nM.

Take `CCCN[C@H]1CO[C@@H]2OCC[C@H](OC(=O)N[C@@H](Cc3ccccc3)[C@H](O)CN(CC(C)C)S(=O)(=O)c3ccc(OC)cc3)[C@@H]21` [Inhibitor 30l, (3R,3aS,4S,7aS)-3-(Propylamino)hexahydro-2H-furo[2,3-b]pyran-4-yl (2S,3R)-3-hydroxy-4-(N-isobutyl-4-methoxyphenylsulfonamido)-1-phenylbutan-2-ylcarbamate]: in the experiment on HIV-1 (30l vs 30j), the “fold reduction in antiviral potency compared to 30j” value is reported as around 3 fold.

In the case of `COc1ccc(S(=O)(=O)N(CC(C)C)C[C@@H](O)[C@H](Cc2ccccc2)NC(=O)O[C@H]2CCO[C@H]3OC[C@H](N(C)C)[C@H]32)cc1` [Inhibitor 30m, (3R,3aS,4S,7aS)-3-(Dimethylamino)hexahydro-2H-furo[2,3-b]pyran-4-yl (2S,3R)-3-hydroxy-4-(N-isobutyl-4-methoxyphenylsulfonamido)-1-phenylbutan-2-ylcarbamate], the “enzyme inhibitory activity” value at HIV-1 protease is listed as “reduction in enzyme Ki”. Further, the “fold improved antiviral activity over 30i” value with HIV-1 (30m vs 30i) is given as 3 fold.

At HIV-1 protease, `COc1ccc(S(=O)(=O)N(CC(C)C)C[C@@H](O)[C@H](Cc2ccccc2)NC(=O)O[C@H]2CCO[C@H]3OC[C@H](OCc4ccccc4)[C@H]32)cc1` [Inhibitor 30e, (3R,3aR,4S,7aS)-3-(Benzyloxy)hexahydro-2H-furo[2,3-b]pyran-4-yl (2S,3R)-3-hydroxy-4-(N-isobutyl-4-methoxy-phenylsulfonamido)-1-phenylbutan-2-ylcarbamate] showed a Ki of 0.012 nM. Also, in the experiment with HIV-1, the IC50 came out at 0.45 nM.

Consider `CO[C@H]1CO[C@@H]2OCC[C@H](OC(=O)N[C@@H](Cc3ccccc3)[C@H](O)CN(CC(C)C)S(=O)(=O)c3ccc(N)cc3)[C@@H]21` [Inhibitor 30c, (3R,3aR,4S,7aS)-3-Methoxyhexahydro-2H-furo[2,3-b]pyran-4-yl (2S,3R)-4-(4-amino-N-isobutylphenylsulfonamido)-3-hydroxy-1-phenylbutan-2-ylcarbamate], for which the Ki on HIV-1 protease was 0.037 nM. Also, in the experiment with HIV-1, the IC50 is 15 nM.

For the compound `CCO[C@H]1CO[C@@H]2OCC[C@H](OC(=O)N[C@@H](Cc3ccccc3)[C@H](O)CN(CC(C)C)S(=O)(=O)c3ccc(OC)cc3)[C@@H]21` [Inhibitor 30d, (3R,3aR,4S,7aS)-3-Ethoxyhexahydro-2H-furo[2,3-b]pyran-4-yl (2S,3R)-3-hydroxy-4-(N-isobutyl-4-methoxyphenyl-sulfonamido)-1-phenylbutan-2-ylcarbamate], at HIV-1 protease, affinity was put at a Ki of 0.0033 nM and the “enzyme inhibitory activity” value is listed as “comparable enzyme inhibitory activity”.

On to `CCN[C@H]1CO[C@@H]2OCC[C@H](OC(=O)N[C@@H](Cc3ccccc3)[C@H](O)CN(CC(C)C)S(=O)(=O)c3ccc(N)cc3)[C@@H]21` [Inhibitor 30k, (3R,3aS,4S,7aS)-3-(Ethylamino)hexahydro-2H-furo[2,3-b]pyran-4-yl (2S,3R)-4-(4-amino-N-isobutylphenylsulfonamido)-3-hydroxy-1-phenylbutan-2-ylcarbamate], for which the “antiviral potency” value in the experiment with HIV-1 is on record as “significant reduction in antiviral potency”.

As for `CC(C)CN(C[C@@H](O)[C@H](Cc1ccccc1)NC(=O)O[C@H]1CO[C@H]2OCC[C@H]21)S(=O)(=O)c1ccc(N)cc1` [Darunavir, darunavir, reference compound], the IC50 in the experiment on HIV-1 came out at 1.6 nM.

Regarding `CCN[C@H]1CO[C@@H]2OCC[C@H](OC(=O)N[C@@H](Cc3ccccc3)[C@H](O)CN(CC(C)C)S(=O)(=O)c3ccc(OC)cc3)[C@@H]21` [Inhibitor 30j, (3R,3aS,4S,7aS)-3-(Ethylamino)hexahydro-2H-furo[2,3-b]pyran-4-yl (2S,3R)-3-hydroxy-4-(N-isobutyl-4-methoxyphenylsulfonamido)-1-phenylbutan-2-ylcarbamate], in the experiment with HIV-1, the “antiviral potency” value was “subnanomolar antiviral activity”.

With `COc1ccc(S(=O)(=O)N(CC(C)C)C[C@@H](O)[C@H](Cc2ccccc2)NC(=O)O[C@H]2CCO[C@H]3OC[C@H](O)[C@H]32)cc1` [Inhibitor 30f, (3R,3aS,4S,7aS)-3-Hydroxyhexahydro-2H-furo[2,3-b]pyran-4-yl (2S,3R)-3-hydroxy-4-(N-isobutyl-4-methoxyphenyl-sulfonamido)-1-phenylbutan-2-ylcarbamate], the Ki at HIV-1 protease was determined as 0.06 nM. Moreover, the “fold less potent than compound 30b” value on HIV-1 protease (enzyme inhibitory and antiviral activity, 30f vs 30b) is recorded as 10 fold. For the same compound, the IC50 with HIV-1 amounted to 3.15 nM; in experiment [1] (Human immunodeficiency virus 1, read-out: IC50 against HIVDRV^RP20), 3.3 nM. Also, the “antiviral activity against resistant variant” value in experiment [1] (HIVDRV^RP20, preliminary assessment) is on record as “maintained full antiviral activity”.
